The supplement of paper PMC6045584
± gives the standard deviation of the averaged measurements.

Assays:
[1] = compound: Cc1nc(Nc2n[nH]c3c2CN(C(=O)N[C@H](CN(C)C)c2ccccc2)C3(C)C)c2sccc2n1; test: surviving fraction relative to DMSO-only wells; higher = less growth inhibition; details: exposure time: 5 days
How it was run: (§1)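 Tumour cell lines were seeded in log phase at 250–500 cells per well into 384-well plates. Starting 24 hours later, inhibitors were present continuously for five days at 0.5, 1, 5, 10, 50, 100, 500 and 1000 nM. Surviving fraction, from CellTiter-Glo luminescence, is normalised to the median of DMSO-only wells. Three screens per line were required, with replicate Pearson r >0.7 and median Z' >0.3 for a line to be kept.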

EVEROLIMUS = compound: CO[C@H]1C[C@@H]2CC[C@@H](C)[C@@](O)(O2)C(=O)C(=O)N2CCCC[C@H]2C(=O)O[C@H]([C@H](C)C[C@@H]2CC[C@@H](OCCO)[C@H](OC)C2)CC(=O)[C@H](C)/C=C(\C)[C@@H](O)[C@@H](OC)C(=O)[C@H](C)C[C@H](C)/C=C/C=C/C=C/1C [EVEROLIMUS]; test: as above; details: exposure time: 5 days
How it was run: as §1

Test System	surviving fraction ([1]; 0.5 nM)	surviving fraction ([1]; 1 nM)	surviving fraction ([1]; 5 nM)	surviving fraction ([1]; 10 nM)	surviving fraction ([1]; 50 nM)	surviving fraction ([1]; 100 nM)	surviving fraction ([1]; 500 nM)	surviving fraction ([1]; 1000 nM)	surviving fraction (EVEROLIMUS; 0.5 nM)	surviving fraction (EVEROLIMUS; 1 nM)	surviving fraction (EVEROLIMUS; 5 nM)	surviving fraction (EVEROLIMUS; 10 nM)	surviving fraction (EVEROLIMUS; 50 nM)	surviving fraction (EVEROLIMUS; 100 nM)	surviving fraction (EVEROLIMUS; 500 nM)	surviving fraction (EVEROLIMUS; 1000 nM)
SG28 HEADNECK	0.97 ± 0.064	1 ± 0.056	0.818 ± 0.009	0.716 ± 0.039	0.667 ± 0.051	0.523 ± 0.063	0.186 ± 0.0036	0.049 ± 0.0053	1.15 ± 0.028	1.09 ± 0.026	0.879 ± 0.063	0.8505 ± 0.005	0.809 ± 0.026	0.767 ± 0.0028	0.68 ± 0.0028	0.775 ± 0.0028
MDAMB157 BREAST	0.841 ± 0.14	0.792 ± 0.055	0.623 ± 0.11	0.545 ± 0.019	0.405 ± 0.055	0.29 ± 0.048	0.159 ± 0.013	0.119 ± 0.021	0.696 ± 0.11	0.817 ± 0.043	0.747 ± 0.05	0.692 ± 0.011	0.634 ± 0.05	0.712 ± 0.052	0.598 ± 0.041	0.572 ± 0.095
HMT3552 BREAST	0.986	0.77	0.376	0.287	0.219	0.212	0.17	0.136	0.742 ± 0.097	0.6117 ± 0.0057	0.591 ± 0.021	0.598 ± 0.032	0.649 ± 0.016	0.616 ± 0.049	0.545 ± 0.05	0.549 ± 0.067
T47D BREAST	1.16 ± 0.034	1.12 ± 0.025	0.845 ± 0.033	0.879 ± 0.023	0.887 ± 0.032	0.87 ± 0.014	0.776 ± 0.013	0.528 ± 0.04	0.892 ± 0.044	0.815 ± 0.047	0.686 ± 0.041	0.637 ± 0.021	0.646 ± 0.021	0.664 ± 0.038	0.6 ± 0.018	0.603 ± 0.022
SCC47 HEADNECK	1.06 ± 0.018	1.08 ± 0.033	0.815 ± 0.029	0.664 ± 0.074	0.47 ± 0.018	0.432 ± 0.044	0.292 ± 0.03	0.135 ± 0.023	1.02 ± 0.053	1 ± 0.017	1.01 ± 0.053	0.95 ± 0.024	0.961 ± 0.053	0.961 ± 0.043	0.937 ± 0.16	0.843 ± 0.032
